Data on eleven compounds can be found in ChEMBL document CHEMBL1201862, “PubChem BioAssay data set” (2004).

Each structure is given as a SMILES string.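 A five-concentration, 48-hour dose response in 96-well plates underlies each endpoint, interpolated linearly between surrounding concentrations. GI50 marks 50% less growth.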 Active and inactive are the calls of the source. No stated cut-off is given here; in the data, active = GI50 up to about 1.1 µM and inactive = higher.

Test in all cases: inhibition of tumour cell growth, NCI panel, 48 h
Assay [1] relates to A498.
The test system of assay [2] is ACHN.
Assay [3] concerns CAKI-1.
Assay [4] relates to CCRF-CEM.
The test system of assay [5] is DU-145.
Assay [6] relates to EKVX.
The subject of assay [7] is HCT-116.
In assay [8] the test system is HL-60.
The subject of assay [9] is IGROV-1.
In assay [10] the test system is MOLT-4.
Assay [11] concerns Malme-3M.
Assay [12] has as its system NCI-H522.
Assay [13] has as its system SF-295.
For assay [14], the system named is SK-MEL-5.
The test system of assay [15] is SNB-19.
Assay [16] relates to SNB-75.
Assay [17] relates to SW-620.
The test system of assay [18] is TK-10.
For assay [19], the system named is COLO 205.
For assay [20], the system named is SK-OV-3.

As for `CCOC(=O)C1CCC(=O)N1C(=O)c1cccc(Cl)c1` (configuration not stated), the GI50 in [1], in assay [2], in [3], in [4], in [5] and in assay [6] was > 100 µM (inactive) throughout. The GI50 in [7], in assay [8], in [9], in assay [10], in assay [11] and in assay [12] was > 100 µM (inactive) throughout. The GI50 in [13], in assay [14], in assay [15], in assay [16], in assay [17] and in [18] was > 100 µM (inactive) throughout.
Turning to `CCCCCCCCCCCCCC(=O)O.O=CC(O)C(O)C(OC1OC(CO)C(O)C(O)C1O)C(O)CO` (configuration not stated), the GI50 in [1] was > 100 µM (inactive); in assay [2], > 100 µM (inactive); in assay [3], 71.6 µM (inactive); in assay [19] it was 73.5 µM (inactive); in assay [5], > 100 µM (inactive); in assay [7], > 100 µM (inactive). For the same compound, the GI50 in assay [8] is 18.7 µM (inactive); in assay [9] it was 26.3 µM (inactive); in assay [11], 83.8 µM (inactive); in assay [12] it was 57.4 µM (inactive); in assay [13], 73.1 µM (inactive); in assay [14], 56.8 µM (inactive). In addition, the GI50 in assay [20] is > 100 µM (inactive); in assay [15], > 100 µM (inactive); in assay [16] it was > 100 µM (inactive); in [17], > 100 µM (inactive); in assay [18] it was 37.7 µM (inactive).
Turning to `Cc1c(Cl)ccc2c(=O)c3cccc(CC(=O)O)c3oc12`, the GI50 in assay [1], in [2], in [3], in assay [4], in assay [19] and in [5] was > 100 µM (inactive) in each case. Also, the GI50 in assay [6], in [7], in [8], in assay [9], in assay [10] and in assay [11] was > 100 µM (inactive) in each case. The GI50 in assay [12], in [13], in assay [14], in assay [15], in assay [17] and in [18] was > 100 µM (inactive) throughout.
With `Fc1ccc(C2(CCCN3CCc4[nH]c5cc(F)ccc5c4C3)OCCO2)cc1`, the GI50 is 14.3 µM (inactive) in [1]; 11.4 µM (inactive) in assay [2]; 11.8 µM (inactive) in [4]; 8.75 µM (inactive) in assay [19]; 14.7 µM (inactive) in assay [5]; 15.3 µM (inactive) in assay [6]. The GI50 in [7] was 11.5 µM (inactive); in assay [8], 10.5 µM (inactive); in [9], 20.1 µM (inactive); in assay [10], 6.67 µM (inactive); in [11] it was 12.3 µM (inactive); in assay [13] it was 13.9 µM (inactive). Moreover, the GI50 in [14] is 10.9 µM (inactive); in assay [20], 13.8 µM (inactive); in assay [15], 11.1 µM (inactive); in assay [16] it was 12.1 µM (inactive); in assay [17], 14.3 µM (inactive); in [18], 14.8 µM (inactive).
As to `CC1=C(C)C2(C#N)C(=O)N3C(=NC(c4ccccc4)NC3c3ccccc3)C2(C#N)C(c2ccccc2)N1` (configuration not stated), the GI50 in assay [1], in assay [2], in [3], in assay [4], in assay [19] and in [5] was > 100 µM (inactive) in each case. Also, the GI50 in assay [6], in assay [7], in assay [8], in assay [9], in assay [10] and in assay [11] was > 100 µM (inactive) throughout. In addition, the GI50 in assay [12], in [13], in [14], in assay [20], in [15] and in [17] was > 100 µM (inactive) each time. Besides, the GI50 in assay [18] is > 100 µM (inactive).
With `O=C1c2ccccc2C(=O)N1c1nc(-c2ccc(Cl)cc2)cc(N2N=C(c3ccc(Br)cc3)CC2c2ccccc2)n1` (configuration not stated), the GI50 in assay [1] was 19.2 µM (inactive); in assay [2], 3.9 µM (inactive); in assay [3], 1.51 µM (inactive); in assay [4], 4.13 µM (inactive); in assay [19] it was 1.9 µM (inactive); in assay [5] it was 3.45 µM (inactive). Besides, the GI50 is 0.792 µM (active) in [6]; 2.01 µM (inactive) in [7]; 2.9 µM (inactive) in assay [8]; 2.84 µM (inactive) in assay [9]; 2.51 µM (inactive) in assay [10]; > 44.7 µM (inactive) in assay [11]. Besides, the GI50 in [12] was 2.09 µM (inactive); in assay [13], 0.91 µM (active); in [14], 1.96 µM (inactive); in [20] it was 6.34 µM (inactive); in assay [15] it was 4.86 µM (inactive); in assay [17], 2.53 µM (inactive). The GI50 in [18] is 7.98 µM (inactive).
As to `CC1=CC[C@](C)(O)[C@@]2(C)CC[C@H]3C(=C(C)C)C(=O)C[C@]3(C)C[C@H]12`, the GI50 in assay [1] is > 50 µM (inactive); in assay [2], 38.7 µM (inactive); in assay [3] it was 16 µM (inactive); in [4] it was 10.8 µM (inactive); in [19] it was 45.5 µM (inactive); in assay [5] it was > 50 µM (inactive). The GI50 in [6] was > 50 µM (inactive); in assay [7], 14.1 µM (inactive); in [8] it was 6.55 µM (inactive); in assay [9], 19.3 µM (inactive); in [10], 8.07 µM (inactive); in assay [12], 10.4 µM (inactive). Moreover, the GI50 in [13] was > 50 µM (inactive); in assay [14], 27.8 µM (inactive); in assay [20], > 50 µM (inactive); in [15], > 50 µM (inactive); in assay [16] it was 26.5 µM (inactive); in assay [17], 27 µM (inactive). In assay [18], the GI50 was > 50 µM (inactive).
For the compound `CC1NCCC(CC(=O)O)C1CC(=O)O` (configuration not stated), the GI50 in [1], in [2], in assay [3], in [4], in assay [19] and in assay [5] was > 100 µM (inactive) in each case. Besides, the GI50 in [6], in assay [7], in assay [8], in [9], in assay [11] and in [12] was > 100 µM (inactive) in each case. The GI50 in assay [13] was > 100 µM (inactive); in [14] it was > 100 µM (inactive); in assay [20], > 100 µM (inactive); in [15], > 100 µM (inactive); in [16], 97.9 µM (inactive); in [17], > 100 µM (inactive). Besides, the GI50 in assay [18] is > 100 µM (inactive).
Consider `COC(=O)c1ccccc1C1CN=NC12Cc1ccc3ccccc3c1C2=O` (configuration not stated), for which the GI50 in assay [1] is > 100 µM (inactive); in assay [2] it was > 100 µM (inactive); in assay [3] it was > 100 µM (inactive); in assay [4], 70.5 µM (inactive); in assay [19], > 100 µM (inactive); in assay [5], > 100 µM (inactive). Further, the GI50 in assay [6] is > 100 µM (inactive); in assay [8] it was 8.43 µM (inactive); in assay [9] it was > 100 µM (inactive); in assay [10], 57.3 µM (inactive); in assay [11], 30.8 µM (inactive); in [12], 80.4 µM (inactive). Moreover, the GI50 is 38.5 µM (inactive) in assay [13]; 6.08 µM (inactive) in assay [14]; > 100 µM (inactive) in [15]; > 100 µM (inactive) in assay [16]; > 100 µM (inactive) in assay [17]; > 100 µM (inactive) in [18].
As to `O=c1[nH]nc(-c2ccccc2)n1-c1cccc([N+](=O)[O-])c1`, the GI50 was > 100 µM (inactive) in assay [1]; > 100 µM (inactive) in [2]; 89.5 µM (inactive) in [3]; > 100 µM (inactive) in assay [4]; > 100 µM (inactive) in [19]; > 100 µM (inactive) in assay [5]. Also, the GI50 in [6], in [7], in [9], in [10], in [11] and in assay [12] was > 100 µM (inactive) in each case. In addition, the GI50 in assay [13], in assay [14], in assay [20], in [15], in assay [16] and in assay [17] was > 100 µM (inactive) each time. For the same compound, the GI50 in [18] was > 100 µM (inactive).
In the case of `Cc1cc(N2CCCCC2)nc2ccc(Cc3ccc4nc(N5CCCCC5)cc(C)c4c3)cc12`, the GI50 in assay [1] is > 100 µM (inactive); in assay [2], > 100 µM (inactive); in assay [3], > 100 µM (inactive); in [19] it was 44.5 µM (inactive); in assay [5] it was > 100 µM (inactive); in assay [6], 18.2 µM (inactive). Further, the GI50 in assay [7] is 98.9 µM (inactive); in [9], > 100 µM (inactive); in assay [10], > 100 µM (inactive); in assay [11], > 100 µM (inactive); in assay [12], 83.2 µM (inactive); in assay [13] it was > 100 µM (inactive). Further, the GI50 is 48.4 µM (inactive) in [14]; > 100 µM (inactive) in [20]; > 100 µM (inactive) in [15]; > 100 µM (inactive) in [16]; > 100 µM (inactive) in [17]; > 100 µM (inactive) in assay [18].
